Measured values reported in patent US20220315621A1, “COMPOSITIONS AND METHODS FOR TREATING CNS DISORDERS” (priority 2017, published 2022).

molecular target: GABAA receptor (rat brain cortical membranes, [35S]-TBPS binding); conditions: Table I-4; rat brain cortical membranes, 3 nM [35S]-TBPS, in the presence of 5 mM GABA

**Q.** For `COC[C@@]1(O)CC[C@H]2[C@@H](CC[C@@H]3[C@@H]2CC[C@]2(C)[C@@H](C(C)=O)CCC[C@@H]32)C1` [I-G14, 1-((1S,4aS,4bR,6aS,8R,10aS,10bR,12aS)-8-hydroxy-8-(methoxymethyl)-12a-methyloctadecahydrochrysen-1-yl)ethan-1-one], which IC50 is on record?
**A.** 10 to 100 nM

**Q.** `COC[C@@]1(O)CC[C@H]2[C@@H](CC[C@@H]3[C@@H]2CC[C@]2(C)[C@@H](Nc4ccc(F)cc4)CCC[C@@H]32)C1` [Compound I-23, (2R,4aS,4bR,6aS,7S,10aS,10bR,12aS)-7-((4-fluorophenyl)amino)-2-(methoxymethyl)-6a-methyloctadecahydrochrysen-2-ol] was tested. Which IC50 did it give?
**A.** 10 to 100 nM

**Q.** For `COC[C@]1(O)CC[C@H]2[C@H](CC[C@@H]3[C@@H]2CC[C@]2(C)[C@@H](OC)CCC[C@@H]32)C1` [I-N11a, (2S,4aS,4bR,6aS,7S,10aS,10bR,12aR)-7-methoxy-2-(methoxymethyl)-6a-methyloctadecahydrochrysen-2-ol], which IC50 is on record?
**A.** 1000 to 10000 nM

**Q.** How did the IC50 turn out when `COC[C@@]1(O)CC[C@H]2[C@H](CC[C@@H]3[C@@H]2CC[C@]2(C)[C@@H](OC)CCC[C@@H]32)C1` [I-N11, (2R,4aS,4bR,6aS,7S,10aS,10bR,12aR)-7-methoxy-2-(methoxymethyl)-6a-methyloctadecahydrochrysen-2-ol] was run?
**A.** 10 to 100 nM

**Q.** How did the IC50 turn out when `Cc1nnn(CC(=O)[C@H]2CCC[C@H]3[C@@H]4CC[C@@H]5C[C@](C)(O)CC[C@]5(C)[C@H]4CC[C@]23C)n1` [Compound I-20, 1-((1S,4aS,4bR,6aR,8R,10aS,10bS,12aS)-8-hydroxy-8,10a,12a-trimethyloctadecahydrochrysen-1-yl)-2-(5-methyl-2H-tetrazol-2-yl)ethan-1-one] was run?
**A.** 100 to 1000 nM

**Q.** With `C[C@@]1(O)CC[C@H]2[C@H](CC[C@@H]3[C@@H]2CC[C@]2(C)[C@@H](C(=O)NCc4ccccc4)CCC[C@@H]32)C1` [Compound I-14, (1S,4aS,4bR,6aR,8R,10aS,10bR,12aS)-N-benzyl-8-hydroxy-8,12a-dimethyloctadecahydrochrysene-1-carboxamide] as the compound, how does the IC50 read?
**A.** 10 to 100 nM

**Q.** With `C[C@]12CC[C@H]3[C@@H](CC[C@@H]4C[C@H](O)CC[C@@H]43)[C@@H]1CC[C@H](C(=O)Nc1ccccc1)C2` (single isomer, unassigned) [I-R24] as the compound, how does the IC50 read?
**A.** 1000 to 10000 nM

**Q.** How did the IC50 turn out when `C[C@@]1(O)CC[C@H]2[C@H](CC[C@@H]3[C@@H]2CC[C@]2(C)[C@@H](CO)CCC[C@@H]32)C1` [I-A3, (2R,4aS,4bR,6aS,7S,10aS,10bR,12aR)-7-(hydroxymethyl)-2,6a-dimethyloctadecahydrochrysen-2-ol] was run?
**A.** 100 to 1000 nM

**Q.** For `CC(=O)[C@H]1CCC[C@H]2[C@@H]3CC[C@H]4C[C@](C)(O)CC[C@]4(C)[C@H]3CC[C@]12C` [I-K2, 1-((1S,4aS,4bR,6aS,8R,10aS,10bS,12aS)-8-hydroxy-8,10a,12a-trimethyloctadecahydrochrysen-1-yl)ethan-1-one], which IC50 is on record?
**A.** 10 to 100 nM

same assay, conditions: Table I-5; rat brain cortical membranes, 3 nM [35S]-TBPS, in the presence of 5 mM GABA

**Q.** How did the IC50 turn out when `CC(=O)[C@@H]1C[C@H]2[C@@H]3CC[C@H]4C[C@](C)(O)CC[C@@H]4[C@H]3CC[C@]12C` [I-AD8a, 1-((1R,2aS,2bR,4aS,6R,8aS,8bR,10aS)-6-hydroxy-6,10a-dimethylhexadecahydrocyclobuta[a]phenanthren-1-yl)ethan-1-one] was run?
**A.** 1000 to 10000 nM

**Q.** With `C[C@@]1(O)CC[C@H]2[C@H](CC[C@@H]3[C@@H]2CC[C@]2(C)[C@H](C(=O)Nc4ccccc4)C[C@@H]32)C1` [I-AA6a, (1R,2aS,2bR,4aR,6R,8aS,8bR,10aS)-6-hydroxy-6,10a-dimethyl-N-phenylhexadecahydrocyclobuta[a]phenanthrene-1-carboxamide] as the compound, how does the IC50 read?
**A.** 1000 to 10000 nM

same assay, conditions: Table I-6; rat brain cortical membranes, 3 nM [35S]-TBPS, in the presence of 5 mM GABA

**Q.** For `C[C@@]1(O)CC[C@H]2[C@H](CC[C@@H]3[C@@H]2CC[C@]2(C)C[C@H](C(=O)Nc4ccccc4)CCC[C@@H]32)C1` [I-BC11a], which IC50 is on record?
**A.** 1000 to 10000 nM
